Measurements from US20220073536A1 (Rigel Pharmaceuticals, Inc., priority 2003, published 2022).

How the values were obtained:
[1] = system: cultured human mast cells (CHMC); test: CHMC low cell density ionomycin activation: tryptase assay; format: cell-based; details: low cell density CHMC, tryptase release, 3 point, read-out: LD Tryptase, CHMC, Iono, 3 pt
[2] = system: cultured human mast cells (CHMC); test: CHMC low cell density IgE activation: tryptase assay; format: cell-based; details: low cell density CHMC, IgE activation, tryptase release
Procedure, shortened: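 Tryptase release was read from supernatant with a fluorogenic substrate (30 min, room temperature) after anti-IgE challenge of cultured human mast cells (1000–1500 cells/well, low density) for 30 minutes at 37° C.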

[3] = Homo sapiens, Mast cell, 3 point, read-out: LD Tryptase, CHMC, IgE, 3 pt
[4] = 3 point, read-out: LD Tryptase, CHMC, IgE, 3 pt
[5] = Homo sapiens, Mast cell, 8 point, read-out: LD Tryptase, CHMC, IgE, 8 pt
[6] = 8 point, read-out: LD Tryptase, CHMC, IgE, 8 pt

SMILES | IC50 ([1]; Homo sapiens, Mast cell) [µM] | IC50 [2, 3] [µM] | IC50 [1] [µM] | IC50 [2, 4] [µM] | IC50 [2, 5] [µM] | IC50 [2, 6] [µM]
CNC(=O)COc1cccc(Nc2ncc(F)c(N(C)c3ccc(OC)c(Cl)c3)n2)c1 [Compound 580, N4-(3-Chloro-4-methoxyphenyl)-N2-[3-(N-methylamino)carbonylmethyleneoxyphenyl]-5-fluoro-N4-methyl-2,4-pyrimidinediamine] | – | – | > 10 | < 10 | – | –
COc1cc(Nc2ncc(F)c(N(C)c3ccc(OC(C)C)nc3)n2)cc(OC)c1 [Compound 581, N2-(3,5-Dimethoxyphenyl)-5-fluoro-N4-(2-isopropoxypyrid-5-yl)-N4-methyl-2,4-pyrimidinediamine] | > 10 | < 10 | – | – | – | –
CNC(=O)COc1cccc(Nc2ncc(F)c(N(C)c3ccc(OC(C)C)nc3)n2)c1 [Compound 582, 5-Fluoro-N4-(2-isopropoxypyrid-5-yl)-N4-methyl-N2-[3-(N-methylamino)carbonylmethyleneoxyphenyl]-2,4-pyrimidinediamine] | – | – | > 10 | < 10 | – | –
COC(=O)c1cc2cc(Nc3ncc(F)c(N(C)c4ccc(OC(C)C)nc4)n3)ccc2o1 [Compound 586, 5-Fluoro-N4-(2-isopropoxypyrid-5-yl)-N2-(2-methoxycarbonylbenzofuran-5-yl)-N4-methyl-2,4-pyrimidinediamine] | < 10 | < 10 | – | – | – | –
CNC(=O)COc1cccc(Nc2ncc(F)c(N(C)c3ccc(Cl)c(OC)c3)n2)c1 [Compound 589, N4-(4-Chloro-3-methoxyphenyl)-5-fluoro-N4-methyl-N2-[3-(N-methylamino)carbonylmethyleneoxyphenyl]-2,4-pyrimidinediamine] | – | – | > 10 | < 10 | – | < 10
COc1cc(N(C)c2nc(Nc3ccc4[nH]ccc4c3)ncc2F)ccc1Cl [Compound 590, N4-(4-Chloro-3-methoxyphenyl)-5-fluoro-N2-(indol-5-yl)-N4-methyl-2,4-pyrimidinediamine] | > 10 | < 10 | – | – | < 10 | –
CNC(=O)COc1ccc(Nc2nc(Nc3cc(OC)cc(OC)c3)ncc2F)cc1Cl [Compound 601, N4-[3-Chloro-4-(N-methylamino)carbonylmethyleneoxyphenyl]-N2-(3,5-dimethoxylphenyl)-5-fluoro-2,4-pyrimidinediamine] | – | – | > 10 | < 10 | – | < 10
CNC(=O)COc1ccc(Nc2nc(Nc3ccc(OC)c(Cl)c3)ncc2F)cc1Cl [Compound 602, N2-(3-Chloro-4-methoxyphenyl)-N4-[3-chloro-4-(N-methylamino)carbonylmethyleneoxyphenyl]-5-fluoro-2,4-pyrimidinediamine] | – | – | > 10 | < 10 | – | < 10
CNC(=O)COc1ccc(Nc2nc(Nc3ccc4cc[nH]c4c3)ncc2F)cc1Cl [Compound 605, N4-[3-Chloro-4-(N-methylamino)carbonylmethyleneoxyphenyl]-5-fluoro-N2-(indol-6-yl)-2,4-pyrimidinediamine] | – | – | > 10 | < 10 | – | < 10
COc1cc(N(C)c2nc(Nc3ccc(-c4cocn4)cc3)ncc2F)ccc1Cl [Compound 606, N4-(4-Chloro-3-methoxyphenyl)-5-fluoro-N4-methyl-N2-[4-(oxazol-4-yl)phenyl]-2,4-pyrimidinediamine] | < 10 | < 10 | – | – | < 10 | –
CNC(=O)c1cc(Nc2ncc(F)c(Nc3ccc(Cl)c(OC)c3)n2)ccc1Cl [Compound 607, N4-(4-Chloro-3-methoxyphenyl)-N2-[4-chloro-3-(N-methylamino)carbonylphenyl]-5-fluoro-2,4-pyrimidinediamine] | > 10 | < 10 | – | – | < 10 | –
CNC(=O)COc1ccc(Nc2nc(Nc3ccc(Cl)c(C(=O)NC)c3)ncc2F)cc1Cl [Compound 608, N4-[3-Chloro-4-(N-methylamino)carbonylmethyleneoxyphenyl]-N2-[4-chloro-3-(N-methylamino)carbonylphenyl]-5-fluoro-2,4-pyrimidinediamine] | – | – | > 10 | < 10 | – | –
CNC(=O)c1cc(Nc2ncc(F)c(Nc3ccc(Cl)c(C(F)(F)F)c3)n2)ccc1Cl [Compound 609] | > 10 | < 10 | – | – | < 10 | –
CNC(=O)c1ccc(Nc2ncc(F)c(Nc3ccc(Cl)c(OC)c3)n2)cc1Cl [Compound 611, N4-(4-Chloro-3-methoxyphenyl)-N2-[3-chloro-4-(N-methylamino)carbonylphenyl]-5-fluoro-2,4-pyrimidinediamine] | > 10 | < 10 | – | – | < 10 | –
CNC(=O)c1ccc(Nc2ncc(F)c(Nc3ccc(Cl)c(C(F)(F)F)c3)n2)cc1Cl [Compound 612, N2-[3-Chloro-4-(N-methylamino)carbonylphenyl]-N4-(4-chloro-3-trifluoromethylphenyl)-5-fluoro-2,4-pyrimidinediamine] | > 10 | < 10 | – | – | < 10 | –

Results, then the compound that gave them:

IC50 ([1]; Homo sapiens, Mast cell) [µM] | IC50 [2, 3] [µM] | IC50 [1] [µM] | IC50 [2, 4] [µM] | IC50 [2, 5] [µM] | IC50 [2, 6] [µM] | SMILES
> 10 | < 10 | – | – | – | – | COc1ccc(N(C)c2nc(Nc3cc(C)c(OC)c(Cl)c3)ncc2F)cc1Cl [Compound 578, N2-(3-Chloro-4-methoxy-5-methylphenyl)-N4-(3-chloro-4-methoxyphenyl)-5-fluoro-N4-methyl-2,4-pyrimidinediamine]
– | – | > 10 | < 10 | – | – | CNC(=O)COc1c(C)cc(Nc2ncc(F)c(N(C)c3ccc(OC)c(Cl)c3)n2)cc1C [Compound 579, N4-(3-Chloro-4-methoxyphenyl)-N2-[3,5-dimethyl-4-(N-methylamino)carbonylmethyleneoxyphenyl]-5-fluoro-N4-methyl-2,4-pyrimidinediamine]
> 10 | < 10 | – | – | – | – | Cc1cc(C)cc(Nc2ncc(F)c(N(C)c3ccc(OC(C)C)nc3)n2)c1 [Compound 583, N2-(3,5-Dimethylphenyl)-5-fluoro-N4-(2-isopropoxypyrid-5-yl)-N4-methyl-2,4-pyrimidinediamine]
> 10 | < 10 | – | – | – | – | COc1ccc(N(C)c2nc(Nc3cc(C)cc(C)c3)ncc2F)cc1Cl [Compound 584]
> 10 | > 10 | – | – | – | – | COC(=O)c1cc2cc(Nc3ncc(F)c(N(C)c4ccc(OC)c(Cl)c4)n3)ccc2o1 [Compound 585, N4-(3-Chloro-4-methoxyphenyl)-5-fluoro-N2-(2-methoxycarbonylbenzofuran-5-yl)-N4-methyl-2,4-pyrimidinediamine]
> 10 | < 10 | – | – | < 10 | – | COc1cc(Nc2ncc(F)c(N(C)c3ccc(Cl)c(OC)c3)n2)cc(OC)c1 [Compound 587, N4-(4-Chloro-3-methoxyphenyl)-N2-(3,5-dimethoxyphenyl)-5-fluoro-N4-methyl-2,4-pyrimidinediamine]
> 10 | < 10 | – | – | – | – | COc1cc(N(C)c2nc(Nc3cc(C)cc(C)c3)ncc2F)ccc1Cl [Compound 588]
> 10 | < 10 | – | – | < 10 | – | COc1cc(Nc2ncc(F)c(N(C)c3cc(C)c(Cl)c(C)c3)n2)cc(OC)c1 [Compound 591]
> 10 | > 10 | – | – | – | – | Cc1cc(C)cc(Nc2ncc(F)c(N(C)c3cc(C)c(Cl)c(C)c3)n2)c1 [Compound 592]
– | – | > 10 | < 10 | – | < 10 | CNC(=O)COc1cccc(Nc2ncc(F)c(N(C)c3cc(C)c(Cl)c(C)c3)n2)c1 [Compound 593, N4-(4-Chloro-3,5-dimethylphenyl)-5-fluoro-N4-methyl-N2-[3-(N-methylamino)carbonylmethyleneoxyphenyl]-2,4-pyrimidinediamine]
< 10 | < 10 | – | – | < 10 | – | Cc1cc(N(C)c2nc(Nc3ccc4[nH]ccc4c3)ncc2F)cc(C)c1Cl [Compound 594]
> 10 | > 10 | – | – | – | – | COC(=O)c1cc2cc(Nc3ncc(F)c(N(C)c4cc(C)c(Cl)c(C)c4)n3)ccc2o1 [Compound 595]
> 10 | > 10 | – | – | – | – | Cc1cc(N(C)c2nc(Nc3ccc(-c4ncco4)cc3)ncc2F)cc(C)c1Cl [Compound 596]
> 10 | < 10 | – | – | – | – | Cc1cc(N(C)c2nc(Nc3cccc(-c4cnco4)c3)ncc2F)cc(C)c1Cl [Compound 597]
> 10 | < 10 | – | – | – | – | Cc1cc(N(C)c2nc(Nc3ccc(-c4cnco4)cc3)ncc2F)cc(C)c1Cl [Compound 598]
> 10 | < 10 | – | – | – | – | Cc1cc(N(C)c2nc(Nc3ccc4cc[nH]c4c3)ncc2F)cc(C)c1Cl [Compound 599]
– | – | > 10 | < 10 | – | < 10 | CNC(=O)COc1ccc(Nc2nc(Nc3cc(C)cc(C)c3)ncc2F)cc1Cl [Compound 600, N4-[3-Chloro-4-(N-methylamino)carbonylmethyleneoxyphenyl]-N2-(3,5-dimethylphenyl)-5-fluoro-2,4-pyrimidinediamine]
– | – | > 10 | < 10 | – | > 10 | CNC(=O)COc1ccc(Nc2nc(Nc3cc(C)c(Cl)c(C)c3)ncc2F)cc1Cl [Compound 603, N2-(4-Chloro-3,5-dimethylphenyl)-N4-[3-chloro-4-(N-methylamino)carbonylmethyleneoxyphenyl]-5-fluoro-2,4-pyrimidinediamine]
> 10 | < 10 | – | – | – | – | Cc1cc(N(C)c2nc(Nc3ccc(-c4cocn4)cc3)ncc2F)cc(C)c1Cl [Compound 604]
> 10 | > 10 | – | – | – | – | CNC(=O)c1cc(Nc2ncc(F)c(N(C)c3cc(C)c(Cl)c(C)c3)n2)ccc1Cl [Compound 610, N4-(4-Chloro-3,5-dimethylphenyl)-N2-[4-chloro-3-(N-methylamino)carbonylphenyl]-5-fluoro-N4-methyl-2,4-pyrimidinediamine]
